Data taken from US9630914B2, “Multitarget FAAH and COX inhibitors and therapeutical uses thereof” (FONDAZIONE ISTITUTO ITALIANO DI TECNOLOGIA, priority 2012, dated 2017).
Read-outs that look alike come from different tables or passages of the source.

Tests used:
Assay type in all cases: biochemical
ovine COX-1 = ovine COX-1 (Ovis aries (Sheep), UniProt P05979); assay: In vitro COX assay (COX Inhibitor Screening Assay Kit), COX-1; settings: 5 μM arachidonic acid
Method: (§1) COX activity was measured using a commercial kit (COX Inhibitor Screening Assay Kit—Cayman Chemical N. 560131) which includes both ovine COX-1 and human recombinant COX-2 enzymes. Inhibitors were pre-incubated with either ovine COX-1 or human COX-2 in order to screen isozyme-specific inhibition. Differently than described in the kit protocol, the reaction was carried out in the presence of 5 μM arachidonic acid while for the blank sample (no activity) the two enzymes were inactivated for 40 minutes at 100° C. It was then measured the amount of PGF2α produced by reduction with SnCl2 of COX-derived PGH2, via enzyme immunoassay (EIA) using a PG-specific antibody and competing with a PG-acetylcholinesterase conjugate.
(§2) Absorbance was measured at 412 nm with a Tecan Infinite M200 plate reader and data were processed according to manufacturer's instructions.
(§3) The median inhibitory concentrations (IC50) were determined by non-linear regression analysis of the Log [concentration]/response curves generated with mean replicate values using a four parameter Hill equation curve fitting with GraphPad Prism 5 (GraphPad Software Inc., CA-USA).

human recombinant COX-2 = human recombinant COX-2 (Homo sapiens (Human), UniProt P35354); assay: In vitro COX assay (COX Inhibitor Screening Assay Kit), COX-2
Method: as §1, §2, §3

Rat FAAH = Rat FAAH (Rattus norvegicus (Rat), UniProt P97612); assay: In vitro rat FAAH radiometric assay; settings: rat brain homogenate; means of ≧3 experiments in duplicate
Method: In Vitro Rat FAAH Radiometric Assay
Rat FAAH was prepared from male Sprague Dawley rat brains, homogenized in a potter in 20 mM of Tris HCl pH 7.4, 0.32 M sucrose.
After 10 minutes of pre-incubation with test compounds, the reaction was started by adding of 50 μL of substrate and incubating for 30 min at 37° C. The substrate was prepared in assay buffer in order to achieve the final concentration of 1 μM arachidonoyl ethanolamide (Cayman Chemical N. 90050) and 0.6 nM anandamide [ethanolamine-1-^3H](American Radiolabeled Chemicals Inc., ART. 0626, conc. 1 mCi/mL, S.A. 60 Ci/mmol). The reaction was stopped by adding cold 1:1 CHCl3/MeOH. After 10 minutes of centrifugation (845×g at 4° C.) 600 μL of aqueous phase were transferred into scintillation vials previously filled with 3 mL of scintillation fluid (Ultima Gold™, Perkin Elmer Inc., Cat. 6013329). Radioactivity was measured by liquid scintillation counting (MicroBeta2 LumiJET Perkin Elmer Inc.).
as §3

human FAAH-1 = human FAAH-1 (Homo sapiens (Human), UniProt O00519); assay: In vitro human FAAH fluorescent assay; settings: human FAAH-1 membrane preparation from HEK-293; means of ≧3 experiments
Method: In Vitro Human FAAH Fluorescent Assay
Human recombinant FAAH was obtained from a HEK-293 FAAH-1 overexpressing stable cell line. Cells were grown in DMEM medium containing 10% FBS, 1% pen/strep, 1% glutamine and 500 μg/mL G418. To obtain membrane preparation cells were scraped off with cold phosphate-buffered saline (PBS) and collected by centrifugation (500×g, 10 minutes, 4° C.); the cell pellet was re-suspended in 20 mM Tris-HCl pH 7.4, 0.32 M sucrose, disrupted by sonication (10 pulses, 5 times) and centrifuged (800×g, 15 minutes, 4° C.); the collected supernatant was centrifuged at 105,000×g for 1 h at 4° C. and the pellet was re-suspended in PBS.
The background (no activity) samples were prepared using 180 μL of assay buffer without human FAAH-1 and 10 μL of DMSO. The reaction was then started by the addition of 10 μL of substrate (AMC arachidonyl amide, N. 10005098, Cayman Chemical) dissolved in ethanol and used at a final concentration of 2 μM. The reaction was carried out for 30 minutes at 37° C. and fluorescence was measured with a Tecan Infinite M200 nanoquant plate reader (excitation wavelength 350 nm/emission wavelength 460 nm).
as §3

[1] = 5 μM arachidonic acid, read-out: human COX-2 IC50

Chain of human recombinant COX-2 (P35354 18-604): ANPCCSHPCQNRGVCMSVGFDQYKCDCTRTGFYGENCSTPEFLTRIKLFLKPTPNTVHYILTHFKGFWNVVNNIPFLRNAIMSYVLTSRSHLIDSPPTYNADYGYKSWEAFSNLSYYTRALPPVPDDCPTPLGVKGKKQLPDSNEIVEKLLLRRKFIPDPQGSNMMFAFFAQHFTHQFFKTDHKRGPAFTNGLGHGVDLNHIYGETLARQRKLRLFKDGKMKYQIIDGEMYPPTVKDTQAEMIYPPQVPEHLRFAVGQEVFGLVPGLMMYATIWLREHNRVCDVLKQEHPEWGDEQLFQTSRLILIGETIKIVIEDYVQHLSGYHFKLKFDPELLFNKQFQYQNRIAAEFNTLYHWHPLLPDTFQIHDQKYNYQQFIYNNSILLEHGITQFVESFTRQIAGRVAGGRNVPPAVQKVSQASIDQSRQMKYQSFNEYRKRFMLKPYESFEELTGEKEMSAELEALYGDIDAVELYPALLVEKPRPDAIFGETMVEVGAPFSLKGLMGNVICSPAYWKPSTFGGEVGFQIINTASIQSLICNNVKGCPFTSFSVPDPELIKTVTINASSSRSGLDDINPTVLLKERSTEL
Chain of human FAAH-1 (O00519 whole entry): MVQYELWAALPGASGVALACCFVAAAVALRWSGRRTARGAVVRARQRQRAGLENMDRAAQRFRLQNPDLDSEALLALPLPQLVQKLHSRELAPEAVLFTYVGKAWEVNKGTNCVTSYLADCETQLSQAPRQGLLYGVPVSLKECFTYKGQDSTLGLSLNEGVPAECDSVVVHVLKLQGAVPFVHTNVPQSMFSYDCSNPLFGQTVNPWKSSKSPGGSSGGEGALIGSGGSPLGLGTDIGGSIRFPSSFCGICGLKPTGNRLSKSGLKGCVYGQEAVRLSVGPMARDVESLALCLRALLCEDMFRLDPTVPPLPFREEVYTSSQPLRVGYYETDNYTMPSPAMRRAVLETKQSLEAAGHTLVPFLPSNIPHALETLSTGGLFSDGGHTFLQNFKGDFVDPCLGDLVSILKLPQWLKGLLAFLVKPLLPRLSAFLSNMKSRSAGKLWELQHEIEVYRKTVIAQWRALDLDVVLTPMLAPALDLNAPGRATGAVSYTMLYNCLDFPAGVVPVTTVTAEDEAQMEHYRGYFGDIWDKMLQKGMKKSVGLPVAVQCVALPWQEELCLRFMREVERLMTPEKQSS
Chain of Rat FAAH (P97612 whole entry): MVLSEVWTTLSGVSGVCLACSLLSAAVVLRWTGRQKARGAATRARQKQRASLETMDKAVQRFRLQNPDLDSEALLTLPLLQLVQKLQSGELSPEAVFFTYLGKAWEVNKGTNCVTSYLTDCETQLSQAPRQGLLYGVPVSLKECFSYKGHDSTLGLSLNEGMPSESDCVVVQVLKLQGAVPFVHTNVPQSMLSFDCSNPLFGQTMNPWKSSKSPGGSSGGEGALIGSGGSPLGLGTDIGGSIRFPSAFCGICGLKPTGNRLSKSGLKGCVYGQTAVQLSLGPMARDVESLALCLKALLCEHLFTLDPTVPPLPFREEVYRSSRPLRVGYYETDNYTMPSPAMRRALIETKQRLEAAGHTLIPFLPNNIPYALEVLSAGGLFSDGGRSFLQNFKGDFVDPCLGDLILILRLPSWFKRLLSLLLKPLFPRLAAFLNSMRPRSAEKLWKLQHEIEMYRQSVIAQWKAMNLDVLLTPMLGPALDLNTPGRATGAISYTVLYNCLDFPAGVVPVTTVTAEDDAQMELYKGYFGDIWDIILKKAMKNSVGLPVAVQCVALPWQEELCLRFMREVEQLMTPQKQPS
Chain of ovine COX-1 (P05979 25-600): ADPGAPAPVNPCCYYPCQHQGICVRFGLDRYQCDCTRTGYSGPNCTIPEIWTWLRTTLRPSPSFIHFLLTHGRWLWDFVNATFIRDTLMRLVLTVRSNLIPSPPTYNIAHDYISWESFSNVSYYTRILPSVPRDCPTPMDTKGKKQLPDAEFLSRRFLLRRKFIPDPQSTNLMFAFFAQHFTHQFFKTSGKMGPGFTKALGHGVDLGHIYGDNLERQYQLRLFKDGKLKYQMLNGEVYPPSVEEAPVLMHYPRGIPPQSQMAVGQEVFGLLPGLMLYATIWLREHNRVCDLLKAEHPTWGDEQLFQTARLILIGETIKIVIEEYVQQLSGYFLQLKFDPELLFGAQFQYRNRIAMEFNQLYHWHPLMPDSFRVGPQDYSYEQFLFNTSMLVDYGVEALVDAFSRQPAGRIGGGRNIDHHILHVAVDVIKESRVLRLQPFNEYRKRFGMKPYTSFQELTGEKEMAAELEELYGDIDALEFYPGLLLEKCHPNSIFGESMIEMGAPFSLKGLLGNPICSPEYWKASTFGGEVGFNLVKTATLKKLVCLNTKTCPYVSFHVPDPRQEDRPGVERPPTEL

Row | Structure (SMILES) | IC50 (ovine COX-1) [nM] | IC50 (human recombinant COX-2) [µM] | IC50 (Rat FAAH) [nM] | IC50 (human FAAH-1) [nM] | IC50 (human recombinant COX-2; [1]) [µM]
1 | CCCCCCNC(=O)Oc1cccc(-c2ccc(C(C)C(=O)O)cc2F)c1 (single isomer, unassigned; (+)) [Example 20, (+)-2-[3-fluoro-4-[3-(hexylcarbamoyloxy)phenyl]phenyl]propanoic acid] | 0.01 | – | – | – | –
2 | CCCCCCNC(=O)Oc1cccc(-c2ccc(C(C)C(=O)O)cc2F)c1 (single isomer, unassigned; (-)) [Example 19, (−)-2-[3-fluoro-4-[3-(hexylcarbamoyloxy)phenyl]phenyl]propanoic acid] | 13000 | – | – | – | –
3 | CC(C(=O)O)c1ccc(-c2cccc(OC(=O)NC3CCCCC3)c2)c(F)c1 (stereo not shown) [Example 1, 2-[4-[3-(cyclohexylcarbamoyloxy)phenyl]-3-fluoro-phenyl]propanoic acid] | 7900 | > 30 | 8200 | 1800 | –
4 | CC(C(=O)O)c1ccc(-c2cccc(OC(=O)NC3CCCC3)c2)c(F)c1 (stereo not shown) [Example 2, 2-[4-[3-(cyclopentylcarbamoyloxy)phenyl]-3-fluoro-phenyl]propanoic acid] | 4400 | > 30 | 4800 | 1800 | –
5 | CC(C)CNC(=O)Oc1cccc(-c2ccc(C(C)C(=O)O)cc2F)c1 (stereo not shown) [Example 3, 2-[3-fluoro-4-[3-(isobutylcarbamoyloxy)phenyl]phenyl]propanoic acid] | 8200 | > 30 | 5600 | 1600 | –
6 | CC(C(=O)O)c1ccc(-c2cccc(OC(=O)NCC3CCCCC3)c2)c(F)c1 (stereo not shown) [Example 4, 2-[4-[3-(cyclohexylmethylcarbamoyloxy)phenyl]-3-fluoro-phenyl]propanoic acid] | 600 | > 30 | 360 | 280 | –
7 | CC(C(=O)O)c1ccc(-c2cccc(OC(=O)NCCC3CCCCC3)c2)c(F)c1 (stereo not shown) [Example 5, 2-[4-[3-(2-cyclohexylethylcarbamoyloxyl)phenyl]-3-fluoro-phenyl]propanoic acid] | 150 | – | 18 | 9 | 11
8 | CC(C(=O)O)c1ccc(-c2cccc(OC(=O)NCc3ccccc3)c2)c(F)c1 (stereo not shown) [Example 6, 2-[4-[3-(benzylcarbamoyloxy)phenyl]-3-fluoro-phenyl]propanoicacid] | 1300 | > 30 | 4200 | 7200 | –
9 | CC(C(=O)O)c1ccc(-c2cccc(OC(=O)NCCc3ccccc3)c2)c(F)c1 (stereo not shown) [Example 7, 2-[3-fluoro-4-[3-(phenethylcarbamoyloxy)phenyl]phenyl]propanoic acid] | 6300 | > 30 | 170 | 70 | –
10 | CC(C(=O)O)c1ccc(-c2cccc(OC(=O)NCCCc3ccccc3)c2)c(F)c1 (stereo not shown) [Example 8, 2-[3-fluoro-4-[3-(3-phenylpropylcarbamoyloxyl)phenyl]phenyl]propanoic acid] | 580 | – | 90 | 22 | 6.2
11 | CC(C(=O)O)c1ccc(-c2cccc(OC(=O)NCCCCc3ccccc3)c2)c(F)c1 (stereo not shown) [Example 9, 2-[3-fluoro-4-[3-(4-phenylbutylcarbamoyloxyl)phenyl]phenyl]propanoic acid] | 3700 | > 30 | 27 | 13 | –
12 | CCCCNC(=O)Oc1cccc(-c2ccc(C(C)C(=O)O)cc2F)c1 (stereo not shown) [Example 10, 2-[4-[3-(butylcarbamoyloxy)phenyl]-3-fluoro-phenyl]propanoic acid] | 260 | > 30 | 7000 | 1500 | –
13 | CCCCCNC(=O)Oc1cccc(-c2ccc(C(C)C(=O)O)cc2F)c1 (stereo not shown) [Example 11, 2-[3-fluoro-4-[3-(pentylcarbamoyloxy)phenyl]phenyl]propanoic acid] | 20 | – | 570 | 92 | 0.16
14 | CCCCCCCNC(=O)Oc1cccc(-c2ccc(C(C)C(=O)O)cc2F)c1 (stereo not shown) [Example 13, 2-[3-fluoro-4-[3-(heptylcarbamoyloxy)phenyl]phenyl]propanoic acid] | 370 | – | 11 | 6 | 0.32
15 | CCCCCCCCNC(=O)Oc1cccc(-c2ccc(C(C)C(=O)O)cc2F)c1 (stereo not shown) [Example 14, 2-[3-fluoro-4-[3-(octylcarbamoyloxy)phenyl]phenyl]propanoic acid] | 990 | – | 2.6 | 4 | 29
16 | CCCCCCNC(=O)Oc1cccc(-c2ccc(C(C)CO)cc2F)c1 (stereo not shown) [Example 15, [3-[2-fluoro-4-(2-hydroxy-1-methyl-ethyl)phenyl]phenyl]N-hexylcarbamate] | 1100 | > 30 | 3.3 | 9.1 | –
17 | CCCCCCNC(=O)Oc1cccc(-c2ccc(CC(=O)O)cc2F)c1 [Example 16, 2-[3-fluoro-4-[3-(hexylcarbamoyloxy)phenyl]phenyl]acetic acid] | 2100 | – | 63 | 16 | 0.24
18 | CCCCCCNC(=O)Oc1ccccc1-c1ccc(C(C)C(=O)O)cc1F (stereo not shown) [Example 17, 2-[3-fluoro-4-[2-(hexylcarbamoyloxy)phenyl]phenyl]propanoic acid] | 720 | > 30 | 2200 | 740 | –
19 | CCCCCCOC(=O)Nc1cccc(-c2ccc(C(C)C(=O)O)cc2F)c1 (stereo not shown) [Example 18, 2-[3-fluoro-4-[3-(hexoxycarbonylamino)phenyl]phenyl]propanoic acid] | 30 | – | 15000 | 21000 | 0.17
